Data published in US9687529B2, “Method of controlling coagulation” (Duke University, priority 2011, dated 2017).
Strand notation (5' to 3'): a small letter for the sugar, then the base; units joined by * are phosphorothioate-linked, units joined directly phosphodiester-linked; [ ] holds rarer units or linkages, { } end groups; capitals alone tell only the bases. r = 2'-OH (RNA); f = 2'-fluoro

What was measured:
[1] = test system: clot formation in whole blood; assay: Thromboelastography (TEG), whole blood stimulated with tissue factor; format: cell-based, human
Description: (§1) Blood was drawn from healthy, consented volunteers under a Duke University Institutional Review Board approved protocol and anticoagulated with 3.2% sodium citrate. Whole blood (320 μL) was mixed with anticoagulant (heparin or aptamers) (10 μL) and kaolin (Haemonetics, Niles, Ill.) (10 μL) or CAT PRP reagent (Diagnostica Stago, 0.33 ρM TF final) (10 μL) was added to stimulate clotting. CaCl2 (20 μL) was immediately added to overcome the citrate, the mixture was added to a plain disposable plastic TEG cup (Haemonetics), and the assay was run according to the manufacturer's instructions. Clot formation at 37° C. was measured with a Thromboelastograph Analyzer (Haemonetics, Niles, Ill.) until a stable clot was formed (i.e., a maximum amplitude was reached) or for three hours with the aptamer combinations. The time lag time, α-angle, and maximum amplitude were automatically calculated by the TEG® Analytical Software version 4.2.3 (Haemonetics).
Because kaolin stimulates blood via the intrinsic pathway, it is unlikely that 7S-1 (FVIIa aptamer) would impair clot formation with this type of stimulation; thus, this aptamer was tested in a modified TEG with TF stimulation. CAT platelet rich plasma (PRP) reagent (TF) was diluted to a final concentration of 0.33 ρM TF to stimulate clotting.

[2] = test system: clot formation in whole blood; assay: Thromboelastography (TEG), whole blood stimulated with kaolin; format: cell-based, human
Description: as §1
Although the aPTT, PT, and CAT assays provide basic information about dose-dependent anticoagulation, these assays are performed in an environment that lacks platelets. Platelets play a crucial role in clot formation by providing a membrane surface upon which the clotting factors assemble, by aggregating and becoming physically incorporated into the blood clot, and by releasing internal stores of agonists that amplify coagulation (Monroe et al, Arterioscler Thromb Vasc Biol 22:138 1-9 (2002)). Therefore, a study was made of aptamer anticoagulation with thromboelastography (TEG), which provides real-time information about the kinetics of clot formation in whole blood (Reikvam et al, Transfus Apher Sci; 40:119-23 (2009). The TEG assay uses mechanical motion to quantify the physical properties of clot formation, including the lag time (the time until clot formation), the α-angle (the rate of clot formation), and the maximum amplitude (the mechanical strength of the clot formed).

[3] = test system: thrombin generation in normal human platelet poor plasma; assay: Calibrated automated thrombography (CAT); format: biochemical
Description: Normal human platelet poor plasma (80 μL) was mixed with aptamer(s) (10 μL) in an Immunolon 2HB U Bottom Mictrotiter 96-well plate (Thermo Labsystems, Franklin, Mass.) and incubated at 37° C. for 5 min. PPP reagent (Diagnostica Stago, Parsippany, N.J.) (either 1 ρM or 5 ρM TF, 20 μL, Diagnostica Stago) was added, and the mixture was incubated at 37° C. for another 5 min. FluCa (Diagnostica Stago) (10 μL) was added to initiate the assay and thrombin generation was measured for 60 minutes at 37° C. with a Fluoroskan Ascent fluorometer (ThermoLabsystem, Helsinki, Finland) according to the manufacturer's instructions. The amount of thrombin generated was quantified by comparison to an assay with thrombin calibrator reagent (Diagnostica Stago) that has a known activity toward the fluorogenic substrate. The lag time, peak amount of thrombin generated, and endogenous thrombin potential (ETP) were automatically calculated by the Thrombinoscope software (Thrombinoscope BV, the Netherlands).
Thrombin is the final protease formed in the coagulation cascade, and the rate of thrombin generation and the total amount of thrombin generated is associated with blood clot formation and stability (Wolberg, Blood Rev 21:131-42 (2007)). To gain more information about the impact of aptamer anticoagulation on the kinetics of thrombin generation, the individual aptamers were analyzed with calibrated automated thrombography (CAT). The CAT assay measures real-time thrombin generation in plasma by monitoring cleavage of a thrombin-specific fluorogenic substrate in response to TF stimulation (Heruker et al, Pathophysiol Haemost Thromb 33: 4-15 (2003)). The parameters of thrombin generation analyzed include: the lag time (time until thrombin generation begins), the peak (the maximal amount of thrombin generated at a given time) and the endogenous thrombin potential (ETP, the total amount of thrombin generated). Similar to the aPTT and PT clotting assays, all of the individual aptamers dose-dependently impacted the various parameters of thrombin generation (FIG. 21 and Table 1). […] 9.3T minorly impacted all parameters of thrombin generation with the high TF reagent; however, because high concentrations of TF may bypass FIX activity by directly generating FXa, the manufacturer recommends low concentrations of TF for analyzing FIX deficient (i.e, Hemophilia B) plasma in the CAT.

[4] = test system: clot formation in normal human platelet poor plasma; assay: Activated partial thromboplastin time (aPTT) plasma clotting assay; format: biochemical; conditions: aPTT
Description: The activated partial thromboplastin time (aPTT) and prothrombin time (PT) assays were performed on a model ST4 mechanical coagulometer (Diagnostica Stago, Parsippany, N.J.) as previously described (Bompiani et al, J Thromb Haemost 10:870-80 (2012)). For the aPTT, 50 μL of normal human platelet poor plasma (PPP) was incubated with 50 μL TriniClot aPTT S (Trinity BioTech, Bray, Co Wicklow, Ireland) at 37° C. for 5 min. Aptamer(s) (5 μL) was added, and the mixture was incubated at 37° C. for another 5 min, and CaCl2 (50 μL) was added to initiate the assay. For the PT, 50 μL of normal human PPP was incubated with 5 μL of aptamer(s) at 37° C. for 5 min. TriniClot PT Excel reagent (Trinity BioTech, Bray, Co Wicklow, Ireland) (100 μL) was added to initiate the reaction. Assays with a combination of two aptamers contain an equimolar concentration of each individual aptamer, and the data shown are the total RNA concentration.
To compare the anticoagulant effect of these four aptamers, dose-response titrations were performed in several clinical plasma-based clotting assays. The activated partial thromboplastin time (aPTT) and prothrombin time (PT) are plasma clotting assays that are clinically used to probe for abnormalities in the intrinsic and extrinsic coagulation pathways, respectively (Van Cott et al, editors. Jacobs & DeMott laboratory test handbook. 5th ed. Hudson Ohio: Lexi-Comp. p. 327-58 (2001)). These relatively simple assays measure the time until clot formation in platelet poor plasma (PPP) in response to either robust tissue factor (TF), or contact stimulation via negatively charged surfaces (i.e., silica, kaolin, celite). […] At high concentrations, the prothrombin aptamer (R9D-14T) was the most robust anticoagulant and inhibited greater than 96% of prothrombin activity in the aPTT and PT. At 4 μM, R9D-14T increased the aPTT clotting time approximately 18-fold and the PT clotting time greater than 80-fold (exceeded the assay limit of 999 sec). […] At the same dose, the FIXa aptamer (9.3T) inhibited greater than 99% of FIX activity and increased the aPTT clotting time approximately 5.5-fold, while the FVIIa aptamer (7S-1) increased the PT clotting time 3-fold and inhibited greater than 99% of FVII activity (FIGS. 20A and 20B).

9.3Tmut: 9.3T mutant control, SEQ ID NO: 4 (AUGGGGACUGUGCCGCGUAAUGCUGCCUCCCCAU; 2'-fluoro at CU, RNA at AG, backbone not given here) [Aptamer 9.3Tmut, reference compound]
Angle ([1]; RNA 1.00 μM): 69.0 ± 4.8 deg | Lag-time ([1]; RNA 1.00 μM): 2.7 ± 0.4 min | Max. Amplitude ([1]; RNA 1.00 μM): 67.2 ± 1.6 mm | Angle ([2]; RNA 2.0 μM): 58.6 ± 7.8 deg | Lag-time ([2]; RNA 2.0 μM): 7.3 ± 2.1 min | Max. Amplitude ([2]; RNA 2.0 μM): 60.1 ± 5.8 mm | ETP ([3]; RNA 120 nM, TF 1 ρM): 1446.83 ± 59.97 nM·min | Lag-time ([3]; RNA 120 nM, TF 1 ρM): 3.11 ± 0.20 min | Peak ([3]; RNA 120 nM, TF 1 ρM): 219.57 ± 33.93 nM | TTP ([3]; RNA 120 nM, TF 1 ρM): 7.17 ± 0.59 min | ETP ([3]; RNA 120 nM, TF 5 ρM): 1820.83 ± 80.77 nM·min | Lag-time ([3]; RNA 120 nM, TF 5 ρM): 1.89 ± 0.06 min | Peak ([3]; RNA 120 nM, TF 5 ρM): 355.41 ± 17.21 nM | TTP ([3]; RNA 120 nM, TF 5 ρM): 4.34 ± 0.10 min

11F7Tmut: 11F7T mutant control, SEQ ID NO: 6 (rGrArGrArGfCfCfCfCrArGfCrGrArGrAfUrArAfUrAfCfUfUrGfUrAfCfCfCrGfCfUfCfUfU) [Aptamer 11F7Tmut, reference compound]
Angle ([1]; RNA 2.00 μM): 68.5 ± 0.5 deg | Lag-time ([1]; RNA 2.00 μM): 3.9 ± 0.2 min | Max. Amplitude ([1]; RNA 2.00 μM): 67.9 ± 0.7 mm | Angle ([2]; RNA 2.0 μM): 69.7 ± 1.2 deg | Lag-time ([2]; RNA 2.0 μM): 5.1 ± 0.6 min | Max. Amplitude ([2]; RNA 2.0 μM): 65.8 ± 0.8 mm | ETP ([3]; RNA 1,000 nM, TF 5 ρM): 1902.67 ± 87.44 nM·min | Lag-time ([3]; RNA 1,000 nM, TF 5 ρM): 1.39 ± 0.06 min | Peak ([3]; RNA 1,000 nM, TF 5 ρM): 391.12 ± 13.27 nM | TTP ([3]; RNA 1,000 nM, TF 5 ρM): 3.73 ± 0.06 min

R9D-14Tmut: R9D-14T mutant control, SEQ ID NO: 7 (GGCGGTCGATCACACAGTTCAAACGTAATAAGCCGGCGTACGAGGCAGACGACTCGCC; 2'-fluoro at CT, RNA at AG, all phosphodiester, T or U not given here) [Aptamer R9D-14Tmut, reference compound]
Angle ([1]; RNA 5.00 μM): 72.3 ± 0.7 deg | Lag-time ([1]; RNA 5.00 μM): 2.7 ± 0.2 min | Max. Amplitude ([1]; RNA 5.00 μM): 66.1 ± 1.4 mm | Angle ([2]; RNA 5.0 μM): 56.0 ± 4.8 deg | Lag-time ([2]; RNA 5.0 μM): 6.5 ± 0.4 min | Max. Amplitude ([2]; RNA 5.0 μM): 61.9 ± 4.0 mm | ETP ([3]; RNA 5,000 nM, TF 5 ρM): 1564.33 ± 121.22 nM·min | Lag-time ([3]; RNA 5,000 nM, TF 5 ρM): 1.44 ± 0.06 min | Peak ([3]; RNA 5,000 nM, TF 5 ρM): 312.12 ± 8.89 nM | TTP ([3]; RNA 5,000 nM, TF 5 ρM): 3.66 ± 0.17 min

B1: 4G dogbone 4: truncate of FX/FII dogbone 4, SEQ ID NO: 24 (nucleic acid)
chain: GGGGAUCACACAGUUCAAACGUAAUAAGCCAAUGUACGAGGCAGACCCCAAAGCCCCAGCGAGAUAAUACUUGGCCCCGCU
modifications: listed as RNA, chemistry not given here
anti-coagulation activity of dogbone 4 truncates (in words) [4]: best anti-coagulation activity of the truncates

B2: 7S-1mut: 7S-1 mutant control, SEQ ID NO: 8 (nucleic acid)
chain: rGrGrGrArGrGrAfCrGrAfUrGfCrGrGrAfCfUfCfCfUfCfCrArArGfCrGrAfCfCrArAfCrAfUfCrGrGfUfCfUfUrAfUfUfUfCrArGrAfUfCrArAfCrArGrAfCrGrAfCfUfCrGfCfUrGrArGrGrAfUfCfCrGrArGrA
Angle ([1]; RNA 0.50 μM): 67.8 ± 3.8 deg | Lag-time ([1]; RNA 0.50 μM): 3.1 ± 0.1 min | Max. Amplitude ([1]; RNA 0.50 μM): 67.2 ± 0.7 mm | ETP ([3]; RNA 30 nM, TF 5 ρM): 1890.67 ± 23.55 nM·min | Lag-time ([3]; RNA 30 nM, TF 5 ρM): 1.73 ± 0.06 min | Peak ([3]; RNA 30 nM, TF 5 ρM): 357.63 ± 7.76 nM | TTP ([3]; RNA 30 nM, TF 5 ρM): 4.45 ± 0.06 min

B3: FX/FII dogbone 3: bifunctional FX/FII dogbone aptamer, SEQ ID NO: 21 (nucleic acid)
chain: GGGUCGAUCACACAGUUCAAACGUAAUAAGCCAAUGUACGAGGCAGACGACUCCAAAAGCCCCAGCGAGAUAAUACUUGGCCCCGCU
modifications: listed as RNA, chemistry not given here
anti-coagulation of dogbones compared to the free combination of aptamers (in words) [4]: better anti-coagulation when compared to the free aptamers

B4: 3G dogbone 4: truncate of FX/FII dogbone 4, SEQ ID NO: 23 (nucleic acid)
chain: GGGUCGAUCACACAGUUCAAACGUAAUAAGCCAAUGUACGAGGCAGACGACCCAAAGCCCCAGCGAGAUAAUACUUGGCCCCGCU
modifications: listed as RNA, chemistry not given here
anti-coagulation activity of dogbone 4 truncates (in words) [4]: best anti-coagulation activity of the truncates

B5: FX/FII dogbone 1: bifunctional FX/FII dogbone aptamer, SEQ ID NO: 19 (nucleic acid)
chain: GGGGCGGUCGAUCACACAGUUCAAACGUAAUAAGCCAAUGUACGAGGCAGACGACUCGCCCCAAAACGUAGAGAGCCCCAGCGAGAUAAUACUUGGCCCCGCUCUUUACGU
modifications: listed as RNA, chemistry not given here
anti-coagulation of dogbones compared to the free combination of aptamers (in words) [4]: better anti-coagulation when compared to the free aptamers

B6: FIX/FX dogbone 1: bifunctional FIX/FX dogbone aptamer, SEQ ID NO: 15 (nucleic acid)
chain: GGUGGAUGGGGACUAUACCGCGUAAUGCUGCCUCCCCAUCCACCAAAUAGCACGUAGAGAGCCCCAGCGAGAUAAUACUUGGCCCCGCUCUUUACGUGCUA
modifications: listed as RNA, chemistry not given here
anti-coagulation of dogbones compared to the free combination of aptamers (in words) [4]: equal anti-coagulation compared to the free combination

B7: FIX/FX dogbone 2: bifunctional FIX/FX dogbone aptamer, SEQ ID NO: 16 (nucleic acid)
chain: GGAUGGGGACUAUACCGCGUAAUGCUGCCUCCCCAUCCAAAACGUAGAGAGCCCCAGCGAGAUAAUACUUGGCCCCGCUCUUUACGU
modifications: listed as RNA, chemistry not given here
anti-coagulation of dogbones compared to the free combination of aptamers (in words) [4]: equal anti-coagulation compared to the free combination
